One series concerns E. coli ATCC 25922. An outline of the steps: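 MIC was determined by broth microdilution in cation-adjusted Mueller–Hinton broth at 5 × 10^5 cells/mL. Peptides were tested at 1024–0.03125 µg/mL final, with 18 h incubation at 37 °C with shaking. Growth was scored visually and by OD600. Medium was supplemented with 150 mM NaCl or 1.25 mM CaCl2.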
The next series concerns S. aureus ATCC 33592. The class given is cell-based, Staphylococcus aureus. An outline of the steps: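 Broth microdilution in cation-adjusted Mueller–Hinton broth, inoculum 5 × 10^5 cells/mL from 18 h cultures; final peptide range 1024–0.03125 µg/mL, medium supplemented with 150 mM NaCl or 1.25 mM CaCl2. Growth scored visually and by OD600; MIC = lowest concentration without growth.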

Series [1] has as its target human ERG (hERG) potassium channel (Homo sapiens, UniProt Q12809). Kind of series: cell-based. The procedure:
The interaction of the peptides with the human ERG (hERG) potassium channel was analyzed using the automated patch-clamp method. Chinese hamster ovary (CHO) hERG Duo cells constitutively expressing hERG (B’SYS) were diluted to 8 × 10^6 cells/mL in Ex-Cell CHO medium (Sigma–Aldrich) containing 25 mM HEPES, 100 U/mL penicillin-streptomycin, and 0.004% soybean trypsin inhibitor. The peptides were diluted from a stock concentration of 10 mM in DMSO to final concentrations of 0.12, 0.37, 1.1, 3.3, 10, and 30 μM (0.5–124 µg/mL for […], 0.51–128 µg/mL for EtCec2-a, 0.49–122 µg/mL for EtCec3-a, 0.8–200 µg/mL for EtDip) in extracellular medium (150 mM NaCl, 4 mM KCl, 2 mM CaCl2, 1 mM MgCl2, 10 mM HEPES, 10 mM glucose) containing 0.06% Pluronic F-68 and 0.3% residual DMSO. The response of hERG to each peptide was assessed while using a QPatch HTX station and QPlates (Sophion/Biolin Scientific, Ballerup, Denmark) by recording the tail current following channel repolarization. Half-maximal inhibitory concentrations (IC50) were determined from a series of six concentrations applied to the cells in ascending order. Terfenadine citrate was used as a positive control and extracellular medium as a negative control.

Another series relates to A. baumannii RKI 19/09. Kind of series: microbe, parasite or virus in culture. The class given is cell-based, Acinetobacter baumannii. As to the method:
The strains that were used in this study (Table 2 and Table S1) were cultivated at 37 °C in cation-adjusted Mueller–Hinton broth (CAMB) in Erlenmeyer flasks, or on the same medium with agar in Petri dishes. Exceptionally, Mycobacterium smegmatis was cultivated at 37 °C in brain heart infusion (BHI) medium that was supplemented with 1% Tween-80 in Erlenmeyer flasks, or on the same medium lacking detergent but with agar in Petri dishes. Strains listed with Robert Koch Institute (RKI) strain numbers are clinical isolates from the RKI strain collection originating from hospitalized patients in Germany. The remaining strains originated from the Sanofi strain collection and they were originally purchased from the American Type Culture Collection or the German Collection of Microorganisms and Cell Cultures. Meropenem/colistin-resistant strains were maintained, as described above, with the appropriate antibiotic added at levels below the minimal inhibitory concentration (MIC).
The MIC values were determined in 384-well microtiter plates with an assay volume of 20 µL. Immediately before each assay, the cultures of test organisms (bacteria grown for 18 h, Candida albicans and M. smegmatis grown for 48 h) were diluted with the appropriate medium to a density of 1 × 10^6 cells/mL (C. albicans), 1 × 10^5 cells/mL (M. smegmatis) or 5 × 10^5 cells per mL (other species). […] We transferred 2-µL aliquots from this dilution series to new 384-well microtiter plates while using a CyBio-Well 384-channel automated pipettor (Analytic Jena, Jena, Germany) and added 18 µL of the diluted suspension of each test species using a Viafill reagent dispenser (Integra), thus reducing the final peptide concentration 10-fold to the range 1024–0.03125 µg/mL. […] The growth of M. smegmatis was measured using the BacTiter-Glo luminescence test system (Promega, Madison, WI, USA). The growth of the other species was determined by visual inspection of the microtiter plate and turbidimetry based on the optical density at 600 nm (OD600). The MIC was defined as the peptide concentration at which no bacterial growth was observed. We supplemented the test medium with either 150 mM NaCl or 1.25 mM CaCl2 to represent monovalent and divalent cations to simulate physiological conditions.

Series [2] in a line: Metabolic stability in human hepatocytes. The class given is in vitro ADME. The following applies: cryopreserved human hepatocytes in suspension, 0.5 × 10^6 cells/mL, 1 µM peptide. The procedure: The metabolic stability of the E. tenax peptides was assessed by determining the intrinsic clearance while using cryopreserved human hepatocytes in suspension culture in a volume of 60 µL with a seeding densitiy of 0.5 × 10^6 hepatocytes/mL. The peptides were added at a concentration of 1 µM (4.14, 4.28, and 6.65 µg/mL for EtCec1-a, EtCec2-a, and EtDip, respectively). Scaled hepatic clearance for human was calculated based on a weight of 25.71 g liver/kg and a hepatocellularity of 99 × 10^6 cells/g liver.

Setting [3] is: CAMB + 0.075 µg/mL colistin (Col), n=3.
Where [4] appears, read: CAMB + A000173039A [0.25 µg/mL].
The mark [5] stands for this setting: CAMB + A000499933A [0.0625 µg/mL].
[6] abbreviates: CAMB + A000500059A [0.0625 µg/mL].
Setting [7] is: CAMB + A000500146A [0.0625 µg/mL].
Where [8] appears, read: CAMB + Colistin E1 [0.016 µg/mL].
Where [9] appears, read: CAMB + Colistin E2 [0.016 µg/mL].
Where [10] appears, read: CAMB adjusted to 150 mM NaCl, n=3.

Values joined by “and” are separate entries in the source; they are usually repeats but may differ in a detail not shown here. Identical values can stand only once. Like-named read-outs stand apart in the source and are kept apart here. No end group written: not given here.

Sequence of human ERG (hERG) potassium channel (Q12809 whole entry): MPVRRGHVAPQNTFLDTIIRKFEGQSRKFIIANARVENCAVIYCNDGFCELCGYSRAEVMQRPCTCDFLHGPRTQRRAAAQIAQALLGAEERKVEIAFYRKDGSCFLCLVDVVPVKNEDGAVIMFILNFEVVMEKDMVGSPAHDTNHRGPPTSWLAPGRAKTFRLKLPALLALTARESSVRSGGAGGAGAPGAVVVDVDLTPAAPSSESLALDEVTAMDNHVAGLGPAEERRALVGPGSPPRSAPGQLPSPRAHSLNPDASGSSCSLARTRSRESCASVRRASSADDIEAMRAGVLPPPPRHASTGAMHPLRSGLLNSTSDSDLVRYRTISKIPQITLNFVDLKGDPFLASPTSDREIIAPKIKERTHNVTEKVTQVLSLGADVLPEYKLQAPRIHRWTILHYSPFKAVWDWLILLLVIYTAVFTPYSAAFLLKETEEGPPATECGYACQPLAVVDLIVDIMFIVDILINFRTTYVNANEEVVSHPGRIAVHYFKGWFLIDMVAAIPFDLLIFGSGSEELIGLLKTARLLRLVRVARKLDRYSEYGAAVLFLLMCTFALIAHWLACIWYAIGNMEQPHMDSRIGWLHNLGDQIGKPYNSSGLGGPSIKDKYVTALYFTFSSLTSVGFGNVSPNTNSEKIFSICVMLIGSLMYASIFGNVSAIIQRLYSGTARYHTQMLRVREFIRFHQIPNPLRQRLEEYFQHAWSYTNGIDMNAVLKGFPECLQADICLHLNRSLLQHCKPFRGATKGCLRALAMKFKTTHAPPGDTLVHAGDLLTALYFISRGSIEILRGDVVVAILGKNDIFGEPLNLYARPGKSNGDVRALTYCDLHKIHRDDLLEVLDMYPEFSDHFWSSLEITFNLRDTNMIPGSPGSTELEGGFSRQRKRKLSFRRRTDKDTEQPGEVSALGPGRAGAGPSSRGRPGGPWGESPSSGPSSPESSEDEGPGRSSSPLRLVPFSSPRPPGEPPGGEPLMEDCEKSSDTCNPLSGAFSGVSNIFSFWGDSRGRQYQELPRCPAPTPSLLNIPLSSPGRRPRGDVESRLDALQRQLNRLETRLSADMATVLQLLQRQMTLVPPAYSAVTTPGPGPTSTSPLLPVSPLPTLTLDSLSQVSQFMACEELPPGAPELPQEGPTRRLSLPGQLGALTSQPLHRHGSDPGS

What is called IC50 is the point on the concentration scale where inhibition reaches its midpoint. A word on the half-life: it is how long it takes for the measured level to halve. Low readings indicate fast loss, high ones slow loss. In the case of “GWLRDFGKRIERTGQNIRDATIQTIGIAQEAANVAATLK-NH2 [EtCec2-NH2]”, the MIC in the series with E. coli ATCC 25922 (setting [3]) is 4 µg/mL; in the series with E. coli ATCC 25922 (CAMB + A000160918 [4 µg/mL]) it was above 256 µg/mL; in the series with E. coli ATCC 25922 (CAMB + A000161246 [4 µg/mL]), above 256 µg/mL; with E. coli ATCC 25922 (CAMB + A000173031A [4 µg/mL]), above 256 µg/mL; with E. coli ATCC 25922 (CAMB + A000173033A [4 µg/mL]) it was above 256 µg/mL; with E. coli ATCC 25922 (setting [4]) it was above 256 µg/mL. For the same compound, the MIC is reported as above 256 µg/mL in the series with E. coli ATCC 25922 (CAMB + A000173380A [4 µg/mL]); above 256 µg/mL in the series on E. coli ATCC 25922 (CAMB + A000498432A [4 µg/mL]); 128 µg/mL in the series with E. coli ATCC 25922 (setting [5]); 256 µg/mL with E. coli ATCC 25922 (setting [6]); 4 µg/mL in the series on E. coli ATCC 25922 (setting [7]); 256 µg/mL in the series on E. coli ATCC 25922 (CAMB + A000501181A [4 µg/mL]). Further, the MIC is 4 µg/mL with E. coli ATCC 25922 (setting [8]); 2 µg/mL with E. coli ATCC 25922 (setting [9]); 2 µg/mL with E. coli ATCC 25922 (CAMB + PMB [0.016 µg/mL]); above 256 µg/mL in the series on E. coli ATCC 25922 (CAMB + PMBN [4 µg/mL]); 32 µg/mL against E. coli ATCC 25922 (setting [10]); 32 µg/mL with E. coli ATCC 25922 (CAMB, 18 h, 37 °C, n = 4). The MIC is 32 µg/mL against E. coli ATCC 25922 (Table 4, CAMB, n=3); 32 µg/mL in the series on E. coli ATCC 25922 (Table 6, CAMB); above 1024 µg/mL against S. aureus ATCC 33592 (CAMB, 18 h, 37 °C, n = 4); 8 µg/mL with A. baumannii RKI 19/09 (setting [3]); 16 µg/mL in the series with A. baumannii RKI 19/09 (setting [10]); 8 µg/mL against A. baumannii RKI 19/09 (Table 4, CAMB, n=3). Also, in series [1], the IC50 was above 29.9 µM. In series [2], this compound displayed a half-life above 3.33 h. The same compound yielded a half-life at 1 µM in series [2] of 3.43 h.
Take `C[C@@H](O)[C@H]1C(=O)N2C(C(=O)O)=C(S[C@@H]3CN[C@H](C(=O)N(C)C)C3)[C@H](C)[C@H]12` [MEM, meropenem]: the MIC with A. baumannii RKI 19/09 (Acinetobacter baumannii, RKI19/09, Table S1, RKI 19/09, read-out: MIC) is above 64 µg/mL.
Regarding “QFNMQGGGSPRQGFDVNANARFPIWQSQNARNSVHGTASYAQHLGGPYGNSRPNFGGGLQFT [EtDip, diptericin-like peptide of Eristalis tenax]”, the MIC in the series with E. coli ATCC 25922 (setting [3]) is given as 4 µg/mL; with E. coli ATCC 25922 (CAMB + A000160918 [4 µg/mL]) it was above 256 µg/mL; with E. coli ATCC 25922 (CAMB + A000161246 [4 µg/mL]), above 256 µg/mL; with E. coli ATCC 25922 (CAMB + A000173031A [4 µg/mL]), above 256 µg/mL; in the series with E. coli ATCC 25922 (CAMB + A000173033A [4 µg/mL]) it was above 256 µg/mL; in the series on E. coli ATCC 25922 (setting [4]) it was above 256 µg/mL. Further, the MIC in the series on E. coli ATCC 25922 (CAMB + A000173380A [4 µg/mL]) is above 256 µg/mL; in the series with E. coli ATCC 25922 (CAMB + A000498432A [4 µg/mL]), above 256 µg/mL; in the series on E. coli ATCC 25922 (setting [5]), above 256 µg/mL; in the series with E. coli ATCC 25922 (setting [6]), above 256 µg/mL; in the series on E. coli ATCC 25922 (setting [7]), 4 µg/mL; in the series on E. coli ATCC 25922 (CAMB + A000501181A [4 µg/mL]), above 256 µg/mL. Moreover, the MIC with E. coli ATCC 25922 (setting [8]) is reported as above 256 µg/mL; with E. coli ATCC 25922 (setting [9]) it was 2 µg/mL; with E. coli ATCC 25922 (CAMB + PMB [0.016 µg/mL]), 2 µg/mL; in the series on E. coli ATCC 25922 (CAMB + PMBN [4 µg/mL]) it was above 256 µg/mL; against E. coli ATCC 25922 (CAMB, 18 h, 37 °C, n = 4) it was above 1024 µg/mL; against E. coli ATCC 25922 (Table 5, CAMB, n=3), above 1024 µg/mL. In addition, the MIC against E. coli ATCC 25922 (Table 6, CAMB) is listed as above 256 µg/mL; against S. aureus ATCC 33592 (CAMB, 18 h, 37 °C, n = 4), above 1024 µg/mL; with A. baumannii RKI 19/09 (setting [3]) it was 1024 µg/mL; in the series with A. baumannii RKI 19/09 (Table 5, CAMB, n=3), above 1024 µg/mL. Moreover, in series [1] (CHO hERG Duo cells, QPatch, tail current, six concentrations), the “IC50 hERG” value is listed as above 200 µg/mL. Besides, in series [2], the half-life is 5.75 h and > 3.33 h.
In the case of “GFLKKIGKKLEGAVQRTRDATIQTIAVAQAAANVAATAKQ-NH2 [EtCec1-NH2]”, the MIC with E. coli ATCC 25922 (ATCC 25922, 18 h) was 8 µg/mL; with S. aureus ATCC 33592 (ATCC 33592, 18 h) it was above 1024 µg/mL; against A. baumannii RKI 19/09 (RKI 19/09, 18 h), 4 µg/mL. The same compound had an IC50 in series [1] above 30 µM. In series [2], this compound showed a half-life above 3.33 h. For the same compound, in series [2], the half-life at 1 µM amounted to 7.13 h.
